Laboratory results reported in patent US20160354300A1, “Low Viscosity Hair Care Composition” (The Procter & Gamble Company, priority 2015, published 2016).
Structures can show the parent of a compound that is named as a salt.

Key:
[1] = Kinematic viscosity at 40 C of surfactant base formulation with added agent (Cannon viscometer); type: physicochemical; details: for Lowest viscosity achieved (cSt): Table 1, base formulation 24% sodium undecyl sulfate, 6% lauramidopropyl betaine, 1.6% perfume, agent at 2%, 4%, 6%, 8%, 40° C.; for Kinematic viscosity at 40 C. [cSt], 2% oil: agent added at 2% to base formulation; for Kinematic viscosity at 40 C. [cSt], 4% oil: agent added at 4% to base formulation; for Kinematic viscosity at 40 C. [cSt], 6% oil: agent added at 6% to base formulation; for Kinematic viscosity at 40 C. [cSt], 8% oil: agent added at 8% to base formulation
Source text: Referring to Tables 1 and 2, the base formulations were made by mixing 1.6% perfume, 24% sodium undecyl sulfate (CAS#1072-24-8) active, 6% lauramidopropyl betaine (CAS#4292-10-8) active and 60.4% deionized water which leaves 8% unfilled for the addition of a viscosity reducing agent (the balance being filled in by distilled water). For all compositions, the surfactant, water and additives including viscosity reducing agents were expected to be in a single phase.
The agents from Tables 1 and 2 were added to the base formulation at a percentage of 2%, 4%, 6%, and 8% into the above surfactant solution. The subsequent formulations were vortexed and put into oven at 60° C. overnight to form homogeneous solution. The viscosities of the formulations were measured with calibrated viscometers (Size 200/350/450) from Cannon Instrument Company (2139 High Tech Road, State College, Pa., USA, 16803).
After the equilibration, the formulations were drawn to reach the starting mark with a rubber suction bulb and the flow time between the starting mark and end mark was recorded for calculation. Each formulation was measured three times to calculate average and standard deviation. Between samples, viscometer was cleaned with water and acetone to rinse off residual.
Viscosity values were calculated based on the equation:
Viscosity (mm^2/s·(cSt))=Time (s)*Constant (mm^2/s^2·(cSt/s))
The time in the above equation is the flow time recorded in the experiment and the constant numbers for each calibrated viscometer were obtained from the manuals. […]
The viscosities of the formulations are measured with calibrated viscometers (Size 200/350/450) from Cannon Instrument Company (2139 High Tech Road, State College, Pa., USA, 16803). Prior to the measurement, the formulations are equilibrated in the viscometer reservoir for 30 min at 40° C. in water bath to ensure a homogeneous temperature is reached in the system. […]

[2] = Visual cloudiness of surfactant formulation with added agent after 20:1 dilution with water; type: physicochemical; design: key: Samples that appeared cloudy (turbid) within less than a day were noted as cloudy (“Yes”); Samples that did not appear cloudy (turbid) within less than a day were noted as not cloudy (“No”); details: 0.5 g formula, 10 ml deionized water; for Cloudy at 1:20 dilution at 2%, 4%, and/or 6%: Table 3, visual, within less than a day; for Added at 2%: cloudy at 20:1 dilution: agent at 2%; for Added at 4%: cloudy at 20:1 dilution: agent at 4%; for Added at 6%: cloudy at 20:1 dilution: agent at 6%; for Added at 8%: cloudy at 20:1 dilution: agent at 8%
Protocol: Now referring to Tables 3 and 4, the following surfactant formulations were made by mixing 1.6% perfume, 24% sodium undecyl sulfate (CAS#1072-24-8) active, 6% lauramidopropyl betaine (CAS#4292-10-8) active, and 60.4% deionized water which leaves 8% unfilled for the addition of the listed agents (the balance being filled in by distilled water). The agents were added at a percentage of 2%, 4%, 6%, and 8% into the above surfactant formulation. The resulting formulations were vortexed and put into oven at 60° C. overnight to form homogeneous solution. For all formulations, the surfactant, water and additives, including the added agents, were expected to be in a single phase.
The resulting formulations were weighed out in a scintillation vial combined with 10 ml of water to achieve a representative dilution during use: 0.5 g formula, 10 ml deionized water for 20:1 dilution. After the combination of the ingredients, the vial was vigorously shaken by hand and the samples were visually inspected by looking at the solution against a dark background. Samples that appeared cloudy (turbid) within less than a day were noted as cloudy (“Yes”). […] Samples that appeared cloudy at the 20:1 dilution for any of the 2%, 4% or 6% concentration of oil may be most desirable by requiring a limited amount of the agent to be added, limiting cost and trade-offs associated with higher levels.
The appearance of a cloudy formulation at 1:20 dilution at 2%, 4%, and/or 6% can signal improved deposition of surfactant soluble active agents during consumer use.

| Structure (SMILES) | Lowest viscosity achieved (cSt) [1] | Kinematic viscosity at 40 C. [cSt], 2% oil [1] | Kinematic viscosity at 40 C. [cSt], 4% oil [1] | Cloudy at 1:20 dilution at 2%, 4%, and/or 6% [2] | Added at 2%: cloudy at 20:1 dilution [2] | Added at 4%: cloudy at 20:1 dilution [2] | Added at 6%: cloudy at 20:1 dilution [2] | Added at 8%: cloudy at 20:1 dilution [2] | Kinematic viscosity at 40 C. [cSt], 6% oil [1] | Kinematic viscosity at 40 C. [cSt], 8% oil [1] |
| --- | --- | --- | --- | --- | --- | --- | --- | --- | --- | --- |
| CCC(=O)O[C@@H]1C[C@H]2CC[C@]1(C)C2(C)C (racemic) [Iso Bornyl Propionate] | 463 cSt | 463.1 cSt |  |  |  |  |  |  |  |  |
| CCCCCCCC(OC)OC [1,1-Dimethoxyoctane] | 308 cSt | 500.7 cSt | 308.1 cSt |  |  |  |  |  |  |  |
| CC(C)CC=C(C=O)C(C)C [2-Isopropyl-5-methyl-2-hexenal] | 332 cSt | 332.3 cSt |  | No | No | No |  |  |  |  |
| CC(=O)OCCC(C)CCCC(C)C (stereo not shown) [3,7-Dimethyloctyl Acetate] | 446 cSt | 445.7 cSt |  | No | No |  |  |  |  |  |
| CCC(CC(C)CC)=NO (stereo not shown) [5-Methyl-3-Heptanone Oxime] | 246 cSt | 246.3 cSt |  |  |  |  |  |  |  |  |
| CCCCOC(=O)c1ccccc1O [Butyl Salicylate] | 368 cSt | 367.9 cSt |  | No | No |  |  |  |  |  |
| CC12CCC(CC1=O)C2(C)C (stereo not shown) [Camphor Gum] | 127 cSt | 365.8 cSt | 127.2 cSt |  |  |  |  |  |  |  |
| CC(=O)OCCC(C)CCC=C(C)C (stereo not shown) [Citronellyl Acetate] | 363 cSt | 362.7 cSt |  | No | No |  |  |  |  |  |
| CCC(=O)OC1CC2CC1C1CC=CC21 (stereo not shown) [Cyclaprop] | 404 cSt | 404.2 cSt |  | No | No | No |  |  |  |  |
| CCCCCCC1C(=O)CCC1C(=O)OC (stereo not shown) [Dihyro Iso Jasmonate] | 119 cSt | 334.9 cSt | 119.1 cSt | No | No |  |  |  |  |  |
| C=C(C)[C@H]1CC=C(C)CC1 [Dipentene] | 35 cSt | 307.6 cSt | 74.5 cSt | Yes | No | No | Yes | Yes | 35.1 cSt | 42.6 cSt |
| CCO [Ethanol] | 29 cSt | 205.6 cSt | 111.0 cSt |  |  |  |  |  | 50.8 cSt | 29.2 cSt |
| CC12CCC(CC1)C(C)(C)O2 [Eucalyptol] | 203 cSt | 527.3 cSt | 292.9 cSt | No | No | No | No |  | 203.1 cSt |  |
| CC(C)=CCC/C(C)=C/COC(=O)Cc1ccccc1 [Geranyl Phenyl Acetate] | 34 cSt | 224.0 cSt | 76.0 cSt | Yes | Yes | Yes | Yes | Yes | 34.3 cSt | 36.6 cSt |
| CCCCCCCCCCCCCCCC [Hexadecane] | 18 cSt | 21.1 cSt | 18.1 cSt | No | No | No |  |  |  |  |
| CC(CC=O)CCCC(C)(C)O (stereo not shown) [Hydroxycitronellal] | 34 cSt | 310.8 cSt | 145.4 cSt |  |  |  |  |  | 65.9 cSt | 34.1 cSt |
| CC(C)COC(=O)c1ccccc1O [Iso Butyl Salicylate] | 409 cSt | 408.7 cSt |  | No | No | No |  |  |  |  |
| CCCCCCCCCCCCCC(=O)OC(C)C [Iso Propyl Myristate] | 30 cSt | 234.2 cSt | 53.7 cSt | Yes | No | No | Yes | Yes | 30.4 cSt | 45.0 cSt |
| CC(C)CCOC(=O)c1ccccc1O [Isoamyl Salicylate] | 193 cSt | 460.3 cSt | 193.2 cSt | Yes | No | Yes |  |  |  |  |
| CCCCCC(=O)OCC(C)C [Isobutyl Hexanoate] | 109 cSt | 390.0 cSt | 177.9 cSt | No | No | No | No | Yes | 140.9 cSt | 109.4 cSt |
| C=C(C)[C@H]1CC=C(C)CC1 [Limonene] | 86 cSt | 366.5 cSt | 166.8 cSt |  |  |  |  |  | 97.5 cSt | 86.4 cSt |
| COC(C)(C)C1CC=C(C)CC1 (stereo not shown) [Orange Flower Ether] | 419 cSt | 552.2 cSt | 418.8 cSt |  |  |  |  |  |  |  |
| CC(=O)CCc1ccc(O)cc1 [Raspberry Ketone] | 33 cSt | 151.9 cSt | 107.4 cSt |  |  |  |  |  | 54.0 cSt | 33.0 cSt |
| CCOC(=O)CC(O)(CC(=O)OCC)C(=O)OCC [Triethyl Citrate] | 41 cSt | 269.4 cSt | 136.6 cSt |  |  |  |  |  | 66.6 cSt | 40.5 cSt |
